In patent publication US20130317073A1, “METHODS OF PEST CONTROL IN SOYBEAN” (SYNGENTA LIMITED, priority 2011, published 2013):

Test system: Euschistus heros
Test: Euschistus heros (neotropical brown stink bug) contact/feeding activity on sprayed soybean plants
Format: in vivo
Conditions: 120 h, N-2 nymphs on sprayed 2 week old soybean plants, evaluation 5 days after infestation, average of two replicates, read-out: mortality and growth effects; for mortality at 3 ppm: Rate 3 ppm; for mortality at 6 ppm: Rate 6 ppm; for mortality at 12.5 ppm: Rate 12.5 ppm
Procedure: Euschistus heros (Neotropical Brown Stink Bug) (Contact/Feeding Activity)
2 week old soybean plants are sprayed in a turn table spray chamber with the diluted spray solutions. After drying, 2 soybean seeds are added and plants are infested with 10 N-2 nymphs of the neotropical brown stink bug Euschistus heros in plastic test boxes. Boxes are incubated in a climate chamber at 25° C. and 60% RH. Evaluation is done 5 days after infestation on mortality and growth effects. The data is an average of two replicates.

Row | Structure (SMILES) | mortality at 3 ppm [%] | mortality at 6 ppm [%] | mortality at 12.5 ppm [%]
1 | Cc1cc(C2=NOC(c3cc(Cl)cc(Cl)c3)(C(F)(F)F)C2)ccc1C(=O)NC1CSC1 (stereo not drawn) [Compound 1] | 65 | 80 | 85
2 | Cc1cc(C2=NOC(c3cc(Cl)cc(Cl)c3)(C(F)(F)F)C2)ccc1C(=O)NCC(=O)CC(F)(F)F (stereo not drawn) [Compound 5] | 85 | 90 | 100
3 | O=C(CNC(=O)c1ccc(C2=NOC(c3cc(Cl)cc(Cl)c3)(C(F)(F)F)C2)cc1)CC(F)(F)F (stereo not drawn) [Compound 7] | 5 | 20 | 60
4 | Cc1cc(C2=NOC(c3cc(Cl)cc(Cl)c3)(C(F)(F)F)C2)ccc1C(=O)NC1CS(=O)(=O)C1 (stereo not drawn) [Compound 2] | 65 | 95 | 95
5 | CCCCNC(=O)c1ccc(C2=NOC(c3cc(Cl)cc(Cl)c3)(C(F)(F)F)C2)cc1C (stereo not drawn) [Compound 8] | 5 | 35 | 95
6 | Cc1cc(C2=NOC(c3cc(Cl)cc(Cl)c3)(C(F)(F)F)C2)ccc1C(=O)NC1(C)CSC1 (stereo not drawn) [Compound 3] | 0 | 20 | 75
7 | O=C(CNC(=O)c1ccc(C2=NOC(c3cc(Cl)cc(Cl)c3)(C(F)(F)F)C2)c2ccccc12)CC(F)(F)F (stereo not drawn) [Compound 6] | 95 | 100 | 95
8 | Cc1cc(C2=NOC(c3cc(Cl)cc(Cl)c3)(C(F)(F)F)C2)ccc1C(=O)NCC(F)(F)F (stereo not drawn) [Compound 9] | 15 | 75 | 70
9 | COC(=O)N1CC(NC(=O)c2ccc(C3=NOC(c4cc(Cl)cc(Cl)c4)(C(F)(F)F)C3)cc2C)C1 (stereo not drawn) [Compound 4] | 15 | 25 | 35
